For assay [1], the system named is fibrin clots from recalcified citrated whole blood. Kind of assay: Red clot lysis under stagnant conditions, whole blood clots. It is filed as cell-based, Porcine. The text has this: (§1) Blood Collection: Porcine blood was collected at a local abattoir immediately following slaughter into 3.5 U/mL heparin (Thermo Fisher Scientific, Waltham, MA) or 3.2% sodium citrate (Sigma-Aldrich, St. Louis, MO). Whole blood was gently agitated using an Orbit LS shaker (Laboratory Supply Network, Atkinson, NH) until perfusion and used in experiments as soon as possible the same day as collection.
(§2) Red clot formation and lysis: Platelet rich plasma (PRP) was made by separating citrated whole blood via gravity over a 2 h period and collecting the supernatant. Separation via gravity was employed instead of centrifugation to avoid platelet damage and activation. Citrated whole blood or PRP was then recalcified with CaCl2 to a final [Ca^2+] of 10 mM (Griffin, M. T., Kim, D. & Ku, D. N. Shear-induced platelet aggregation: 3D-grayscale microfluidics for repeatable and localized occlusive thrombosis. Biomicrofluidics 13, 2019), and 200 μl was transferred into 500 μal centrifuge tubes and allowed to clot and retract for 30 min. The clot was then incubated with 100 μl of either agent or control solution. The treatment solution was exchanged by removing the top 100 μl and replacement with fresh solution at 3, 6, 12, 24, and 48 h of incubation. The weight of the tube was measured immediately post-clot formation and at each timepoint after removal of old solution and prior to the replacement with fresh solution.

Assay [2] has as its system fibrin clots from recalcified platelet rich plasma (PRP). Put plainly: Red clot lysis under stagnant conditions, PRP clots. In kind it is cell-based, Porcine.
From the text: as §1, §2

The conditions of assay [3]: clinical study; cited from earlier work.
The test system of assay [4] is FeCl3 injury-induced thrombus. Details: dose or concentration left out as unconfirmed. Conditions: after a 60 min treatment; FeCl3 injury in vivo; ADAMTS-13; cited from earlier work.
In assay [5] the test system is VWF- and platelet-rich white thrombi. Put plainly: Lysis of platelet-rich white thrombi in collagen-coated stenotic capillary tube under arterial shear (perfusion of lytic agents). In kind it is cell-based, Porcine. The conditions noted are these: 0.02 mg/ml, 60 min perfusion. The protocol: Collagen Coating: The stenotic glass test sections (inner diameter=1.5 mm) described herein were made by the Chemistry and Biochemistry Glass Shop at Georgia Institute of Technology. The % stenosis by diameter reduction ranged from 60% to 80%. Fibrillar equine collagen (type I; Chrono-Log Corporation, Havertown, PA) was diluted 9:1 in NaCl (Sigma-Aldrich, St. Louis, MO) and incubated in the test section at the stenosis for 24 h in a warm, moist environment (Para, A., Bark, D., Lin, A. & Ku, D. Rapid platelet accumulation leading to thrombotic occlusion. Ann Biomed Eng 39, 1961-1971, 2011; Para, A. N. & Ku, D. N. A low-volume, single pass in-vitro system of high shear thrombosis in a stenosis. Thromb Res 131, 418-424, 2013).
as §1
Syringe Perfusion: Lightly heparinized whole blood was perfused through the stenotic test section using a syringe pump. The flow rate was set so that the initial wall shear rate in the stenosis was 3,500 s^−1. A pressure transducer was connected in-line upstream of the stenosis (FIG. 2A). A dissecting microscope with a camera (PCO-Tech Incorporated, Romulus, MI) was used to capture images in real-time during perfusion. Blood perfusion continued until the upstream pressure increased by 30 mmHg (equivalent to an arterial pressure head in vivo) as a result of platelet thrombus formation in the stenotic section. Perfusion with a syringe pump (constant flow rate over constant pressure head) ensured that the thrombi were never fully occlusive, allowing subsequent perfusion for the induction of lysis.
Pharmacologic Agents: Recombinant human tPA (Sigma-Aldrich, St. Louis, MO), recombinant human ADAMTS-13 (MyBiosource, San Diego, CA), abciximab (ReoPro was kindly provided by Dr. Kevin Maher at Emory/CHOA), NAC (Thermo Fisher Scientific, Waltham, MA), and DiNAC (Cayman Chemical, Ann Arbor, Ml) or control (PBS) treatments were perfused for an hour at a flow rate of 1 ml/min. Agent solutions were made by dissolution or dilution in PBS. The in vitro flow system setup and image acquisition are shown in FIG. 2, and the concentrations of each agent are detailed in Table 2.
Real-time image capture (5 frames per second) of the stenosis continued throughout treatment perfusion.
Data Analysis: The thrombi surface area (which was colored green) was calculated using manual pixel counting in the open-source GNU Image Manipulation Program (GIMP, Version 2.10.8, 1995-2018). Surface area reduction was calculated by % pixel reduction versus the occlusion image. Analysis of variance (ANOVA) was used to test for statistical differences between groups, with the significance set at p<0.05.
In this example, a stenotic capillary tube model, which potentiates VWF- and platelet-rich white thrombi in an arterial setting on a collagen-coated stenosis was used (Para, A., Bark, D., Lin, A. & Ku, D. Rapid platelet accumulation leading to thrombotic occlusion. Ann Biomed Eng 39, 1961-1971, 2011; Ku, D. N. & Flannery, C. J. Development of a flow-through system to create occluding thrombus. Biorheology 44, 273-284, 2007; Para, A. N. & Ku, D. N. A low-volume, single pass in-vitro system of high shear thrombosis in a stenosis. Thromb Res 131, 418-424, 2013) to test lysis of 90% occlusive white thrombi (FIG. 2) and perfused low (2 mM) and high (20 mM) concentrations of NAC and DiNAC solutions. As illustrated in FIG. 2. DiNAC, but not NAC, achieved thrombolysis over 60 minutes of perfusion (FIG. 3A-3D). 2 mM and 20 mM DiNAC lysed most of the thrombi (>95%) within 14 min and 1.5 min, respectively (FIG. 3A-3B).

The test system of assay [6] is platelet-rich thrombi from heparinized human whole blood. Put plainly: Example 4: thrombolysis of human blood thrombi in 3 mm collagen-coated stenotic capillary tubes. It is filed as cell-based. Conditions: perfusion, human whole blood thrombus. On the procedure: In this example, an in-vitro randomized trial was performed using heparinized human blood in collagen-coated glass capillary tubes with a designed stenosis, mimicking arterial disease. Heparinized human blood was then infused through 3 mm capillary tubes at a constant flow rate, during which near-occlusive thrombi were formed at the region of stenosis (FIG. 11). DiNAC was then infused at a constant flow rate through the capillary tubes in order to observe thrombolytic activity, using a combination of live pressure monitoring and microscopic image capture. All infusions were control-matched with a phosphate-buffered saline solution in lieu of DiNAC.

For assay [7] the following is noted: stroke patients, clinical trial; cited from earlier work.

For “tPA: Recombinant human tissue plasminogen activator, a serine protease converting plasminogen to plasmin”, in assay [1] (fibrin clots, static conditions, over 48 h), the “clot dissolution front speed” value was approximately 3.5 μm/min. Besides, the “whole blood clot lysis over 48 h” value in assay [1] (whole blood clot, 48 h, DiNAC and NAC at 2 mM) was “large decrease in clot volume”. Also, the “clot weight reduction from baseline” value is given as 26% in assay [1] (whole blood clot, after 6 h) and 36% in assay [2] (after 12 h). Besides, in assay [2] (48 h, DiNAC and NAC at 2 mM), the “PRP clot lysis over 48 h” value is recorded as “large decrease in clot volume”. For the same substance, the recanalization rate entry in assay [3] is listed as “less than 30%”. Moreover, in assay [4], the “reduction of thrombus size” value was 53.2%. The “thrombus surface area reduction” value in assay [5] was found to be 23±4%. In addition, the “effect on clots and flow” value in assay [6] was “did not alter the clots or restore flow”. Also, in assay [7], the “relative risk reduction versus the placebo” value is given as 30%.

(Values after patent US20230372272A1, “USE OF CYSTINE AND DERIVATIVES THEREOF AS ANTI-THROMBOTIC AND THROMBOLYTIC AGENTS” (Georgia Tech Research Corporation, priority 2020, published 2023).)
